# What was measured:
# [1] = tested on: BMMCs; test: MTT assay, inhibition of the growth of BMMCs (cell toxicity); type: cell-based; details: 10 μM
# Description: (§1) (1) Experimental Animal: a 6-week-old female Balb/C mouse without specific pathogens.
# (§2) (2) Extraction Process: the mouse was sacrificed by cervical dislocation. After confirming the death of the mouse, it was immersed in alcohol for 3-5 minutes. The back skin of the mouse was cut with tweezers and scissors on a clean bench. The spleen was removed and placed in a filter. The filter was placed in a petri dish containing serum-free medium. The spleen was grounded into a cell suspension having a cell concentration of 2×10^6 cells/mL. […] of lectins was added, and cell suspension was then cultured in RPMI1640 medium for 5 days. The supernatant was collected. The femur bone of the mouse was removed, and joints of the bone was cut. The bone marrow was washed into a centrifuging tube by using serum-free medium. The bone marrow containing medium was then centrifuged, and the supernatant was discarded and the pellet was red bone marrow.
# (§3) (3) Cell Culture: The cells were cultured for 4 weeks with RPMI1640, 10% Gibco FBS, 20% spleen supernatant, 1% AEPS, 1% MEM, and 1% double antibody.
# (1) Preparation of MTT Solution: 5 mg/mL MTT solution was prepared by weighing an amount of MTT ((2-(4,5-dimethyl-2-thiazolyl)-3,5-diphenyl-2H-[…]) and dissolving MMT in PBS (solvent), and the solution was then filtered using a 0.22 μm microporous membrane. The solution was light yellow and stored at −20° C.
# (2) Method: BMMCs were seeded in 96-well plates at a density of 2×10^5/mL at 100 μL per well, and the compounds of different concentrations were added. 100 μL culture medium and 100 μL PBS were used as blank control. After 7 hours, 20 μL MMT (5 mg/mL) was added to each well. The plates were then placed in an incubator (5% CO2, 37° C.) for 4 hours. After the reaction was complete, the supernatant was discarded, and 150 μL of DMSO was added to each well. After mixing, the absorbance (OD value) was measured at 490 nm using a microplate reader. Cell Viability=(ODcompounds−ODculture medium)/(ODPBS−ODculture medium)×100%
# [2] = tested on: Leukotriene C4 (LTC4) production in mouse bone marrow-derived mast cells (BMMCs); test: Inhibition of LTC4 production/release by IgE/DNP-HSA-stimulated BMMCs (ELISA); type: cell-based; details: 10 μM
# Description: as §1, §2, §3
# Principle: This experiment is based on the competitive binding of LTC4 to the LTC4-acetylcholinesterase conjugate (LTC4 tracer) to determine the amount of […]. Because the concentration of the LTC4 tracer is constant and the concentration of LTC4 is varied, the amount of LTC4 tracer bound to the LTC4 antiserum is inversely proportional to the amount of LTC4. The antibody-LTC4 complex binds to the murine monoclonal anti-rabbit IgG, while the murine monoclonal anti-rabbit IgG has previously been conjugated to the kit. After the reaction system was stabilized, the unbound reagent was washed away. Ellman's reagent (a […]) was added. […] The color depth was measured by the spectrophotometric method, and is proportional to the amount of LTC4 tracer, which is inversely proportional to the amount of LTC4.
# (a) Sample Preparation: culturing mature BMMCs, adding IgE overnight, washing with PBS three times, and then spreading in 96-well plates (1×10^6 cells/well). The test compound solutions were added to plates and the plates were incubated for 1-1.5 hours, stimulating with DNP-HSA for 15 min. The solutions were then centrifuged at 3000 rpm for 3 min at 4° C., and the supernatant was collected and diluted 5-fold with RPMI 1640 to obtain sample solution.
# (b) ELISA Kit Reaction: Adding reagents according to the kit instructions, reacting at 4° C. for 18 h, and washing with washing buffer. 200 μL of Ellman's reagent was added to each well, reacting for 40 min.
# (c) Measurement of Absorbance: The absorbance was measured at 405 nm.
Structure (SMILES),Cell Toxicity (%) [1] [%],Inhabitation Rate (%) [2] [%]
CC(=O)OCCCC(C)C1=C(C)CC2OC(=O)C3(CC(c4ccccc4)=NO3)C2C1=O (centres unmarked) [Compound 4a],0.16,21.93
CC(=O)OCCCC(C)C1=C(C)CC2OC(=O)C3(CC(c4ccc(F)cc4)=NO3)C2C1O (centres unmarked) [Compound 2b],1.47,77.46
CC(=O)OCCCC(C)C1=C(C)CC2OC(=O)C3(CC(c4ccccc4)=NO3)C2C1OC(C)=O (centres unmarked) [Compound 3a],5.98,79.15
CC(=O)OCCCC(C)C1=C(C)CC2OC(=O)C3(CC(c4ccc(C#N)cc4)=NO3)C2C1OC(C)=O (centres unmarked) [Compound 3e],0.25,93.95
CC(=O)OCCCC(C)C1=C(C)CC2OC(=O)C3(CC(c4ccc(O)cc4)=NO3)C2C1O (centres unmarked) [Compound 2j],−0.9,74.36
CC(=O)OCCCC(C)C1=C(C)CC2OC(=O)C3(CC(c4ccc(C)cc4)=NO3)C2C1OC(C)=O (centres unmarked) [Compound 3f],4.1,−23.48
CC(=O)OCCCC(C)C1=C(C)CC2OC(=O)C3(CC(c4ccncc4)=NO3)C2C1O (centres unmarked) [Compound 2i],4.26,84.84
CC(=O)OCCCC(C)C1=C(C)CC2OC(=O)C3(CC(c4ccc(Cl)cc4)=NO3)C2C1OC(C)=O (centres unmarked) [Compound 3c],−6.22,70.16
CC(=O)OCCCC(C)C1=C(C)CC2OC(=O)C3(CC(c4ccc(C)cc4)=NO3)C2C1=O (centres unmarked) [Compound 4f],−0.66,28.77
CC(=O)OCCCC(C)C1=C(C)CC2OC(=O)C3(CC(c4ccncc4)=NO3)C2C1=O (centres unmarked) [Compound 4i],9.09,83.53
CC(=O)OCCCC(C)C1=C(C)CC2OC(=O)C3(CC(c4ccccc4)=NO3)C2C1O (centres unmarked) [Compound 2a],5.98,69.36
COc1ccc(C2=NOC3(C2)C(=O)OC2CC(C)=C(C(C)CCCOC(C)=O)C(OC(C)=O)C23)cc1 (centres unmarked) [Compound 3g],11.12,93.19
CC(=O)OCCCC(C)C1=C(C)CC2OC(=O)C3(CC(c4ccc(C#N)cc4)=NO3)C2C1O (centres unmarked) [Compound 2e],−0.66,85.49
CC(=O)OCCCC(C)C1=C(C)CC2OC(=O)C3(CC(c4ccc(C)cc4)=NO3)C2C1O (centres unmarked) [Compound 2f],−1.06,−32.88
"C=C1C(=O)O[C@@H]2CC(C)=C([C@@H](C)CCCOC(C)=O)[C@H](O)[C@H]12 [ABL, 1-O-acetylbritannilatone]",1.15,35.21
CC(=O)OCCCC(C)C1=C(C)CC2OC(=O)C3(CC(c4ccc(Cl)cc4)=NO3)C2C1O (centres unmarked) [Compound 2c],1.88,67.43

Structure (SMILES),Cell Toxicity (%) [1] [%],Inhabitation Rate (%) [2] [%]
CC(=O)OCCCC(C)C1=C(C)CC2OC(=O)C3(CC(c4ccc(Cl)cc4)=NO3)C2C1=O (centres unmarked) [Compound 4c],2.95,84.4
"C=C1C(=O)OC2CC(C)=C(C(C)CCCOC(C)=O)C(OC(C)=O)C12 (centres unmarked) [OABL, 1,6-O,O-diacetylbritannilatone, reference compound]",3.46,53.24
CC(=O)OCCCC(C)C1=C(C)CC2OC(=O)C3(CC(c4ccc(O)cc4)=NO3)C2C1OC(C)=O (centres unmarked) [Compound 3j],21.95,88.7
CC(=O)OCCCC(C)C1=C(C)CC2OC(=O)C3(CC(c4ccc(F)cc4)=NO3)C2C1OC(C)=O (centres unmarked) [Compound 3b],−1.97,89.01
CC(=O)OCCCC(C)C1=C(C)CC2OC(=O)C3(CC(c4ccc(Br)cc4)=NO3)C2C1=O (centres unmarked) [Compound 4d],−4.59,97.77
CC(=O)OCCCC(C)C1=C(C)CC2OC(=O)C3(CC(c4ccc(Br)cc4)=NO3)C2C1O (centres unmarked) [Compound 2d],1.06,50.4
CC(=O)OCCCC(C)C1=C(C)CC2OC(=O)C3(CC(c4ccc([N+](=O)[O-])cc4)=NO3)C2C1=O (centres unmarked) [Compound 4h],5.65,92.79
CC(=O)OCCCC(C)C1=C(C)CC2OC(=O)C3(CC(c4ccc([N+](=O)[O-])cc4)=NO3)C2C1O (centres unmarked) [Compound 2h],20.64,87.14
CC(=O)OCCCC(C)C1=C(C)CC2OC(=O)C3(CC(c4ccc(Br)cc4)=NO3)C2C1OC(C)=O (centres unmarked) [Compound 3d],9.58,89.94
CC(=O)OCCCC(C)C1=C(C)CC2OC(=O)C3(CC(c4ccc(C#N)cc4)=NO3)C2C1=O (centres unmarked) [Compound 4e],3.19,88.22
CC(=O)OCCCC(C)C1=C(C)CC2OC(=O)C3(CC(c4ccncc4)=NO3)C2C1OC(C)=O (centres unmarked) [Compound 3i],9.58,88.7
CC(=O)OCCCC(C)C1=C(C)CC2OC(=O)C3(CC(c4ccc(F)cc4)=NO3)C2C1=O (centres unmarked) [Compound 4b],−8.44,32
COc1ccc(C2=NOC3(C2)C(=O)OC2CC(C)=C(C(C)CCCOC(C)=O)C(O)C23)cc1 (centres unmarked) [Compound 2g],7.37,0.91
CC(=O)OCCCC(C)C1=C(C)CC2OC(=O)C3(CC(c4ccc([N+](=O)[O-])cc4)=NO3)C2C1OC(C)=O (centres unmarked) [Compound 3h],6.63,84.4
COc1ccc(C2=NOC3(C2)C(=O)OC2CC(C)=C(C(C)CCCOC(C)=O)C(=O)C23)cc1 (centres unmarked) [Compound 4g],5.81,53.28

# From patent US11028102B2, “Methods of using 1-O-acetylbritannilatone spiro aryl isoxazoline compounds” (priority 2017, dated 2021)
